{"source": "paper PMC7391767", "about": "“Molecular mechanisms underlying menthol binding and activation of TRPM8 ion channel” (Nature Communications, 2020)", "key": {"[1]": {"system": "ANAP-incorporated TRPM8 mutants", "test": "patch-clamp test of function of ANAP-incorporated TRPM8 mutants", "type": "cell-based, mouse", "settings": "Menthol 1 mM", "method": "L-ANAP methyl ester was purchased from AsisChem. pANAP vector was purchased from Addgene. ANAP was incorporated into TRPM8 by introducing a TAG amber stop codon mutation as previously reported. Briefly, after co-transfection of both TRPM8 and pANAP vectors, ANAP was directly added to the culture medium to the final concentration of 20 µM. After 1–2 days, ANAP-containing culture medium was completely changed. Cells were further cultured in ANAP-free medium overnight before experiments.\n(§1) Patch-clamp recordings were performed with a HEKA EPC10 amplifier controlled by PatchMaster software (HEKA). Whole-cell recordings were performed at ±80 mV. Patch pipettes were prepared from borosilicate glass and fire-polished to resistance of ~4 MΩ. For whole-cell recording, serial resistance was compensated by 60%. For single-channel recordings, patch pipettes were fire-polished to a higher resistance of 6-to-10 MΩ and then recorded in the inside-out configuration. To maximize the chance of obtaining a patch with only one channel, single-channel recordings were performed about 8 h after transfection. A solution with 130 mM NaCl, 10 mM glucose, 0.2 mM EDTA, and 3 mM HEPES (pH 7.2) was used in both bath and pipette for either whole-cell or single-channel recordings. Membrane potential was clamped at +80 mV for single-channel recordings. Current was sampled at 10 kHz and filtered at 2.9 kHz. All recordings were performed at room temperature (22 °C) with the maximum variation of 1 °C.\nSupplementary Table 1. ANAP- incorporated TRPM8 mutants. The function of these\nANAP- incorporated mutants was accessed by patch- clamp recordings. Menthol (1 mM)\nwas perfused to activate a mutant channel."}, "[2]": {"target": "T1, TRPM8 Y745H (Mus musculus, UniProt Q8R4D5, Y745H)", "T1 construct": "expressed in transfected cells; host or cells: HEK293T", "T1 sequence (Q8R4D5 whole entry Y745H)": "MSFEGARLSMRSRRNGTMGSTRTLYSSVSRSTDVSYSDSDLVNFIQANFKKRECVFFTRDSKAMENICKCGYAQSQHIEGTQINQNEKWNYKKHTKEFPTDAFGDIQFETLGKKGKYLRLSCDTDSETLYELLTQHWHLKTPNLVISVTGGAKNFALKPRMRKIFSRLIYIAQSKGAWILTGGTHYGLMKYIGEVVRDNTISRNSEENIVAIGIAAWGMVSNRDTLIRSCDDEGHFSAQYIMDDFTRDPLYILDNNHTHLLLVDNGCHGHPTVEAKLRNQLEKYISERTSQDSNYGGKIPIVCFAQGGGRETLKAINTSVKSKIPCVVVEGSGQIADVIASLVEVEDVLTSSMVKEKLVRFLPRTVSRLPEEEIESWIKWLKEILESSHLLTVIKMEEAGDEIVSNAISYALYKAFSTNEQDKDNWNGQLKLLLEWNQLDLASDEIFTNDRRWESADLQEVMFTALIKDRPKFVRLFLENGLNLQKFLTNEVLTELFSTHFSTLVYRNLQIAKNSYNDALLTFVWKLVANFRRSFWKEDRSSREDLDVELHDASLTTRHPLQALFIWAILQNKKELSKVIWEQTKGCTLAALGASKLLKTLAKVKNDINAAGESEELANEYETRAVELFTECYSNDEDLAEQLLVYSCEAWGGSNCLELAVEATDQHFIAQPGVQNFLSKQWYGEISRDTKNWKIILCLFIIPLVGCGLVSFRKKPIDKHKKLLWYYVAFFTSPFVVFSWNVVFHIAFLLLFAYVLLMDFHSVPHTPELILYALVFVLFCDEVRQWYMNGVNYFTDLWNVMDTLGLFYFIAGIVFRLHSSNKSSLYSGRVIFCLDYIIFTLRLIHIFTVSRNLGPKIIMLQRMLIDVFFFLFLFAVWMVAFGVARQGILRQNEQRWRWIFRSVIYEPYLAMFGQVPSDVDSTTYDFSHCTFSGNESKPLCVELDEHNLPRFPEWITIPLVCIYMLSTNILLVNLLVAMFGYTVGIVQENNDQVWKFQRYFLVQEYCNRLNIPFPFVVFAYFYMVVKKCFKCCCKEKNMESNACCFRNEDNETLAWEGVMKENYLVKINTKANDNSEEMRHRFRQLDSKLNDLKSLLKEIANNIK", "test": "whole-cell patch-clamp recording of menthol activation", "type": "cell-based", "settings": "Y745H mutation", "method": "(§2) Murine TRPM8 was used in this study. Point mutations were made by Fast Mutagenesis Kit V2 (SBS Genetech). Primers used to generate point mutations are summarized in Supplementary Table 2.\n(§3) HEK293T cells purchased from Kunming Cell Bank, Kunming Institute of Zoology, Chinese Academy of Sciences (ATCC, CRL-3216) were cultured in Dulbecco’s modified Eagle’s medium supplemented with 20 mM L-glutamine and 10% fetal bovine serum. Cells were transiently transfected with cDNA constructs by Lipofectamine 3000 (Life Technologies) following the manufacturer’s protocol. Patch-clamp recordings were performed 1–2 days after transfection.\nas §1, with “Membrane potential was clamped at +80 mV for single-channel recordings. Current was sampled at 10 kHz and filtered at 2.9 kHz. All recordings were performed at room temperature (22 °C) with the maximum variation of 1 °C.” left out"}, "[3]": {"target": "T2, TRPM8 R842K (Mus musculus, UniProt Q8R4D5, R842K)", "T2 construct": "expressed in transfected cells; host or cells: HEK293T", "T2 sequence (Q8R4D5 whole entry R842K, the tested form may be a part)": "as the sequence (Q8R4D5 whole entry Y745H) above, with H745Y, R842K counted along it", "test": "whole-cell patch-clamp and thermodynamic mutant cycle analysis", "type": "cell-based", "method": "as §2, §3, §1\n(§4) Ligands such as menthol and its analogs were perfused to membrane patch by a gravity-driven system (RSC-200, Bio-Logic). Bath and ligand solution were delivered through separate tubes to minimize the mixing of solutions. Patch pipette was placed in front of the perfusion tube outlet.\n(§5) Data from whole-cell recordings were analyzed in Igor Pro version 6.1 (WaveMatrix). EC50 values were derived from fitting a Hill equation to the concentration–response relationship. […] To distinguish these possibilities, dissociation constant (Kd) for ligand binding was estimated assuming the following gating scheme:1 C0↔KdC1↔LO, where L is the equilibrium constant for the final closed-to-open transition.\n(§6) To perform thermodynamic cycle analysis, Kd values of four channel-ligand combinations (WT channel, menthol: Kd _1; Mutant channel, menthol: Kd _2; WT channel, menthol analog: Kd _3; Mutant channel, menthol analog: Kd _4) were determined separately. The strength of coupling was determined by the coupling energy (kT multiplied by LnΩ, where k is the Boltzmann constant and T is temperature in Kelvin). LnΩ was calculated by Eq. (2) as[51]2 LnΩ=LnKd_1⋅Kd_4/Kd_2⋅Kd_3."}, "[4]": {"target": "T3, TRPM8 Y1005F (Mus musculus, UniProt Q8R4D5, Y1005F)", "T3 construct": "expressed in transfected cells; host or cells: HEK293T", "T3 sequence (Q8R4D5 whole entry Y1005F)": "as the sequence (Q8R4D5 whole entry Y745H) above, with H745Y, Y1005F counted along it", "test": "whole-cell patch-clamp and thermodynamic mutant cycle analysis", "type": "cell-based", "settings": "patch-clamp, peer review file", "method": "as §2, §3, §1, §4, §5, §6"}, "[5]": {"target": "T4, TRPM8 I846V (Mus musculus, UniProt Q8R4D5, I846V)", "T4 construct": "expressed in transfected cells; host or cells: HEK293T", "T4 sequence (Q8R4D5 whole entry I846V)": "as the sequence (Q8R4D5 whole entry Y745H) above, with H745Y, I846V counted along it", "test": "whole-cell patch-clamp and thermodynamic mutant cycle analysis", "type": "cell-based", "method": "Murine TRPM8 was used in this study. Point mutations were made by Fast Mutagenesis Kit V2 (SBS Genetech). Primers used to generate point mutations are summarized in Supplementary Table 2. All mutations were confirmed by sequencing.\nas §3, §1, §4\nData from whole-cell recordings were analyzed in Igor Pro version 6.1 (WaveMatrix). EC50 values were derived from fitting a Hill equation to the concentration–response relationship. Changes in EC50 by point mutation may be caused by either perturbation of ligand bind or channel gating or both. To distinguish these possibilities, dissociation constant (Kd) for ligand binding was estimated assuming the following gating scheme:1 C0↔KdC1↔LO, where L is the equilibrium constant for the final closed-to-open transition.\nas §6"}, "[6]": {"settings": "calculated from concentration–response curves, read-out: Kd, Ave"}}, "note": "Several values for one entry are separate records, joined by “and”; a condition that tells them apart may be missing. Identical values can stand only once. Entries after “also recorded” stand apart in the source; their conditions may differ. Like-named read-outs stand apart in the source and are kept apart here.", "data": [{"smiles": "CC(C)[C@@H]1CC[C@@H](C)C[C@H]1O", "note": "[menthol, (−)-menthol]", "values": [{"measurement": "Menthol activation", "setting": "[1]; A875ANAP (S5)", "value": "YES"}, {"measurement": "Menthol activation", "setting": "[1]; D920ANAP (Between S5 and S6)", "value": "YES"}, {"measurement": "Menthol activation", "setting": "[1]; I962ANAP (S6)", "value": "YES"}, {"measurement": "Menthol activation", "setting": "[1]; L774ANAP (S2)", "value": "YES"}, {"measurement": "Menthol activation", "setting": "[1]; L817ANAP (S3)", "value": "YES"}, {"measurement": "Menthol activation", "setting": "[1]; L864ANAP (S5)", "value": "YES"}, {"measurement": "Menthol activation", "setting": "[1]; L939ANAP (Between S5 and S6)", "value": "YES"}, {"measurement": "Menthol activation", "setting": "[1]; N789ANAP (S2S3 linker)", "value": "YES"}, {"measurement": "Menthol activation", "setting": "[1]; N821ANAP (S3-S4 linker)", "value": "YES"}, {"measurement": "Menthol activation", "setting": "[1]; N852ANAP (S4)", "value": "YES"}, {"measurement": "Menthol activation", "setting": "[1]; N947ANAP (Between S5 and S6)", "value": "YES"}, {"measurement": "Menthol activation", "setting": "[1]; P734ANAP (S1)", "value": "YES"}, {"measurement": "Menthol activation", "setting": "[1]; P952ANAP (Between S5 and S6)", "value": "YES"}, {"measurement": "Menthol activation", "setting": "[1]; P958ANAP (Between S5 and S6)", "value": "YES"}, {"measurement": "Menthol activation", "setting": "[1]; S819ANAP (S3-S4 linker)", "value": "YES"}, {"measurement": "Menthol activation", "setting": "[1]; S820ANAP (S3-S4 linker)", "value": "YES"}, {"measurement": "Menthol activation", "setting": "[1]; S823ANAP (S3-S4 linker)", "value": "YES"}, {"measurement": "Menthol activation", "setting": "[1]; S824ANAP (S4)", "value": "YES"}, {"measurement": "Menthol activation", "setting": "[1]; S921ANAP (Between S5 and S6)", "value": "YES"}, {"measurement": "Menthol activation", "setting": "[1]; S966ANAP (S6)", "value": "YES"}, {"measurement": "Menthol activation", "setting": "[1]; T795ANAP (S2S3 linker)", "value": "YES"}, {"measurement": "Menthol activation", "setting": "[1]; V791ANAP (S2S3 linker)", "value": "YES"}, {"measurement": "Menthol activation", "setting": "[1]; V876ANAP (S5)", "value": "YES"}, {"measurement": "Menthol activation", "setting": "[1]; W954ANAP (Between S5 and S6)", "value": "YES"}, {"measurement": "Menthol activation", "setting": "[1]; Y787ANAP (S2)", "value": "YES"}, {"measurement": "Menthol activation", "setting": "[1]; Y808ANAP (S3)", "value": "YES"}, {"measurement": "Menthol activation", "setting": "[2]", "value": "barely activated; also recorded: virtually abolished"}, {"measurement": "L (equilibrium constant between closed and open states upon ligand binding), Ave", "setting": "[3]", "value": 18.3882}, {"measurement": "L, single recording", "setting": "[3]", "value": "24.6476 and 13.2288 and 17.2882"}, {"measurement": "concentration–response curve value, ave", "setting": "[3]; 20 microM", "value": 0.01439}, {"measurement": "concentration–response curve value, ave", "setting": "[3]; 100 microM", "value": 0.2373}, {"measurement": "concentration–response curve value, single recording", "setting": "[3]; 100 microM", "value": "0.2375 and 0.1865 and 0.1541 and 0.2977 and 0.2927 and 0.2 and 0.2925"}, {"measurement": "concentration–response curve value, ave", "setting": "[3]; 500 microM", "value": 0.6774}, {"measurement": "concentration–response curve value, single recording", "setting": "[3]; 500 microM", "value": "0.6802 and 0.7221 and 0.591 and 0.6718 and 0.7751 and 0.601 and 0.7009"}, {"measurement": "concentration–response curve value, ave", "setting": "[3]; 1000 microM", "value": 0.8246}, {"measurement": "concentration–response curve value, single recording", "setting": "[3]; 1000 microM", "value": "0.892 and 0.8781 and 0.8012 and 0.8485 and 0.8182 and 0.7917 and 0.7425"}, {"measurement": "concentration–response curve value, ave", "setting": "[3]; 2000 microM", "value": 0.8146}, {"measurement": "concentration–response curve value, single recording", "setting": "[3]; 2000 microM", "value": "0.9219 and 0.8808 and 0.8026 and 0.7789 and 0.777 and 0.8121 and 0.7292"}, {"measurement": "Kd", "setting": "[3]; [6]", "value": 8710, "unit": "µM"}, {"measurement": "Kd", "setting": "[3]; read-out: Kd, single recording", "value": "8480 µM and 6830 µM and 10800 µM"}, {"measurement": "EC50", "setting": "[4]", "value": "498 ± 8.7", "unit": "µM"}, {"measurement": "L (equilibrium constant between closed and open states upon ligand binding), Ave", "setting": "[5]", "value": 5.981}, {"measurement": "concentration–response curve value, ave", "setting": "[5]; 1 microM", "value": 0.07755}, {"measurement": "concentration–response curve value, ave", "setting": "[5]; 20 microM", "value": 0.2593}, {"measurement": "concentration–response curve value, ave", "setting": "[5]; 100 microM", "value": 0.6986}, {"measurement": "concentration–response curve value, ave", "setting": "[5]; 500 microM", "value": 0.7722}, {"measurement": "concentration–response curve value, ave", "setting": "[5]; 2000 microM", "value": 0.7707}, {"measurement": "concentration–response curve value, single recording", "setting": "[5]; 2000 microM", "value": "0.8798 and 0.8106 and 0.8028 and 0.882 and 0.5707 and 0.6784"}, {"measurement": "Kd", "setting": "[5]; [6]", "value": 120, "unit": "µM"}, {"measurement": "Kd", "setting": "[5]; read-out: Kd, single recording", "value": "88.3 µM and 109 µM and 97.6 µM and 116 µM and 189 µM"}]}]}
